Assay results as given in patent publication US6716866B2, “Aryl-benzimidazole compounds having antiinfective activity” (GeneSoft Pharmaceuticals, Inc., priority 2001, dated 2004).

Experiments:
Assay type in all cases: cell-based
E. faecium ATCC 51559 = experiment: MIC against drug-resistant bacteria, E. faecium ATCC 51559; conditions: organism A = E. faecium ATCC 51559, vancomycin resistant strain (VRE)
Procedure: (§1) Compounds according to this invention were screened for their in vitro activities against selected species of bacteria and fungi. The minimal inhibition concentration (MIC) of these compounds was determined using the National Committee for Clinical Laboratory Standards (NCCLS) broth microdilution assay in microtiter plates, as set forth in: (1) the guidelines of the National Committee for Clinical Laboratory Standards (NCCLS) Document M7-A4 (NCCLS, 1997); (2) the guidelines of the National Committee for Clinical Laboratory Standards (NCCLS) Document M11-A4 (NCCLS, 1997); and (3) the guidelines and reference method of the National Committee for Clinical Laboratory Standards (NCCLS) Document M27-T (NCCLS, 1995). For antifungal essays, the method recommended in Murray, PR., 1995 Manual of Clinical Microbiology (ASM Press, Washington, D.C.), was employed.
(§2) Further, compounds (I) are effective against drug-resistant bacteria, as evidenced by the data in Table 2 below:
(§3) ATCC 27660 and ATCC 33591 are methycillin resistant strains of S. aureus (MRSA's). ATCC 51559 is a vancomycin resistant strain of E. faecium (VRE). ATCC 12228 is a methycillin resistant strain of S. epidermis (MRSE). ATCC 51422 is a penicillin resistant strain of S. pneumoniae.

S. aureus ATCC 27660 = experiment: MIC against drug-resistant bacteria, S. aureus ATCC 27660; conditions: organism B = S. aureus ATCC 27660, methycillin resistant strain (MRSA)
Procedure: as §1, §2, §3

S. aureus ATCC 33591 = experiment: MIC against drug-resistant bacteria, S. aureus ATCC 33591; conditions: organism C = S. aureus ATCC 33591, methycillin resistant strain (MRSA)
Procedure: as §1, §2, §3

S. pneumoniae ATCC 51422 = experiment: MIC against drug-resistant bacteria, S. pneumoniae ATCC 51422; conditions: organism E = S. pneumoniae ATCC 51422, penicillin resistant strain
Procedure: as §1, §2, §3

S. epidermis ATCC 12228 = experiment: MIC against drug-resistant bacteria, S. epidermis ATCC 12228; conditions: organism D = S. epidermis ATCC 12228, methycillin resistant strain (MRSE)
Procedure: as §1, §2, §3

Minimum Inhibitoty Concentration (MIC) (E. faecium ATCC 51559) | Minimum Inhibitoty Concentration (MIC) (S. aureus ATCC 27660) | Minimum Inhibitoty Concentration (MIC) (S. aureus ATCC 33591) | Minimum Inhibitoty Concentration (MIC) (S. pneumoniae ATCC 51422) | Minimum Inhibitoty Concentration (MIC) (S. epidermis ATCC 12228) | SMILES
+++ (MIC ≦4) | +++ (MIC ≦4) | +++ (MIC ≦4) | +++ (MIC ≦4) | +++ (MIC ≦4) | Cn1cc(NC(=O)c2ccc(F)cc2F)cc1C(=O)Nc1cc(-c2nc3ccc(C(=O)NCCN4CCCCC4)cc3[nH]2)n(C)c1 [Compound I-21]
+++ (MIC ≦4) | +++ (MIC ≦4) | + (MIC from 12 to 32, inclusive) | +++ (MIC ≦4) | +++ (MIC ≦4) | C[C@@H]1CN(CCNC(=O)c2ccc3nc(-c4cc(NC(=O)c5cc(NC(=O)c6sc7ccccc7c6Cl)cn5C)cn4C)[nH]c3c2)C[C@H](C)O1 [Compound I-26]
+++ (MIC ≦4) | +++ (MIC ≦4) | +++ (MIC ≦4) | +++ (MIC ≦4) | +++ (MIC ≦4) | Cn1cc(NC(=O)c2ccc(Cl)cc2F)cc1C(=O)Nc1cc(-c2nc3ccc(C(=O)NCCN4CCSCC4)cc3[nH]2)n(C)c1 [Compound I-14]
+++ (MIC ≦4) | +++ (MIC ≦4) | +++ (MIC ≦4) | +++ (MIC ≦4) | +++ (MIC ≦4) | Cn1cc(NC(=O)c2cc3ccccc3cn2)cc1C(=O)Nc1cc(-c2nc3ccc(C(=O)NCCN4CCC(O)CC4)cc3[nH]2)n(C)c1 [Compound I-32]
+++ (MIC ≦4) | +++ (MIC ≦4) | – | – | +++ (MIC ≦4) | CCN(CC)CCNC(=O)c1ccc2nc(-c3cc(NC(=O)c4cc(NC(=O)c5cc6ccccc6cn5)cn4C)cn3C)[nH]c2c1 [Compound I-27]
+++ (MIC ≦4) | +++ (MIC ≦4) | +++ (MIC ≦4) | +++ (MIC ≦4) | +++ (MIC ≦4) | CCN(CC)CCNC(=O)c1ccc2nc(-c3cc(NC(=O)c4cc(NC(=O)c5sccc5Cl)cn4C)cn3C)[nH]c2c1 [Compound I-40]
– | + (MIC from 12 to 32, inclusive) | – | – | – | CCOC(=O)c1ccc2nc(-c3cc(NC(=O)c4cc(NC(=O)c5ccc(F)cc5NCCN5CCOCC5)cn4C)cn3C)[nH]c2c1 [Compound I-16]
+++ (MIC ≦4) | +++ (MIC ≦4) | +++ (MIC ≦4) | +++ (MIC ≦4) | +++ (MIC ≦4) | Cn1cc(NC(=O)c2ccc(F)cc2F)cc1C(=O)Nc1cc(-c2nc3ccc(C(=O)NCCN4CCOCC4)cc3[nH]2)n(C)c1 [Compound I-19]
+++ (MIC ≦4) | +++ (MIC ≦4) | +++ (MIC ≦4) | +++ (MIC ≦4) | +++ (MIC ≦4) | Cn1cc(NC(=O)c2ccc3nc(-c4cc(NC(=O)c5ccc(F)cc5F)cn4C)[nH]c3c2)cc1C(=O)NCCN1CCOCC1 [Compound I-39]
+++ (MIC ≦4) | +++ (MIC ≦4) | ++ (MIC between 4 and 12) | +++ (MIC ≦4) | +++ (MIC ≦4) | Cn1cc(NC(=O)c2sc3ccccc3c2Cl)cc1C(=O)Nc1cc(-c2nc3ccc(C(=O)NCCN4CCSCC4)cc3[nH]2)n(C)c1 [Compound I-23]
+++ (MIC ≦4) | +++ (MIC ≦4) | +++ (MIC ≦4) | +++ (MIC ≦4) | +++ (MIC ≦4) | Cn1cc(NC(=O)c2ccc3nc(-c4cc(NC(=O)c5cc6ccccc6cn5)cn4C)[nH]c3c2)cc1C(=O)NCCN1CCOCC1 [Compound I-31]
+++ (MIC ≦4) | +++ (MIC ≦4) | +++ (MIC ≦4) | +++ (MIC ≦4) | +++ (MIC ≦4) | Cn1cc(NC(=O)c2ccc3nc(-c4cc(NC(=O)c5cc6ccccc6cn5)cn4C)[nH]c3c2)cc1C(=O)NCCN1CCCCC1 [Compound I-22]
+++ (MIC ≦4) | +++ (MIC ≦4) | +++ (MIC ≦4) | +++ (MIC ≦4) | +++ (MIC ≦4) | CN(C)CCCNC(=O)c1ccc2nc(-c3cc(NC(=O)c4cc(NC(=O)c5cc6ccccc6cn5)cn4C)cn3C)[nH]c2c1 [Compound I-33]
– | – | +++ (MIC ≦4) | – | +++ (MIC ≦4) | COCn1cc(NC(=O)c2ccc3nc(-c4cc(NC(=O)c5sccc5Cl)cn4C)[nH]c3c2)cc1C(=O)NCCN1CCSCC1 [Compound I-34]
– | +++ (MIC ≦4) | – | – | – | CCN(CC)CCNC(=O)c1ccc2nc(-c3cc(NC(=O)c4cc(NC(=O)c5sc6ccccc6c5Cl)cn4C)cn3C)[nH]c2c1 [Compound I-25]
+++ (MIC ≦4) | +++ (MIC ≦4) | – | – | +++ (MIC ≦4) | Cn1cc(NC(=O)c2cc3ccccc3cn2)cc1C(=O)Nc1cc(-c2nc3ccc(C(=O)NCCN4CCSCC4)cc3[nH]2)n(C)c1 [Compound I-30]
+++ (MIC ≦4) | +++ (MIC ≦4) | – | – | +++ (MIC ≦4) | Cn1cc(NC(=O)c2ccc3nc(-c4cc(NC(=O)c5ccc(Cl)cc5F)cn4C)[nH]c3c2)cc1C(=O)NCCN1CCCCC1 [Compound I-28]
+++ (MIC ≦4) | +++ (MIC ≦4) | +++ (MIC ≦4) | +++ (MIC ≦4) | +++ (MIC ≦4) | Cn1cc(NC(=O)c2ccc(F)cc2F)cc1C(=O)Nc1cc(-c2nc3ccc(C(=O)NCCN4CCSCC4)cc3[nH]2)n(C)c1 [Compound I-20]
– | +++ (MIC ≦4) | – | – | – | CCOC(=O)c1ccc2nc(-c3cc(NC(=O)c4cc(NC(=O)c5ccc(F)cc5NCCN5CCSCC5)cn4C)cn3C)[nH]c2c1 [Compound I-17]
– | +++ (MIC ≦4) | – | – | – | CCOC(=O)c1ccc2nc(-c3cc(NC(=O)c4cc(NC(=O)c5ccc(F)cc5NCCN5CCCCC5)cn4C)cn3C)[nH]c2c1 [Compound I-18]
– | +++ (MIC ≦4) | +++ (MIC ≦4) | – | – | CCN(CC)CCCNC(=O)c1ccc2nc(-c3cc(NC(=O)c4cc(NC(=O)c5cc6ccccc6cn5)cn4C)cn3C)[nH]c2c1 [Compound I-37]
– | +++ (MIC ≦4) | – | – | – | Cn1cc(NC(=O)c2sc3ccccc3c2Cl)cc1C(=O)Nc1cc(-c2nc3ccc(C(=O)NCCN4CCCCC4)cc3[nH]2)n(C)c1 [Compound I-24]
